In patent publication US20240124464A1, “SUBSTITUTED FUSED BICYCLIC COMPOUND AS KINASE INHIBITOR AND USE THEREOF” (IMPACT THERAPEUTICS (SHANGHAI), INC, priority 2020, published 2024) one finds IC50 data, which are given here for 20 compounds.

A word on the IC50: it is the concentration that gives 50% inhibition.

Molecules are shown by their SMILES. Bounds are passed on as bounds.

In one test the target is T1, NUAK2(h) enzyme (Homo sapiens, UniProt Q9H093).
T1 construct: purchased Eurofins Discovery
T1 sequence (Q9H093 1-628): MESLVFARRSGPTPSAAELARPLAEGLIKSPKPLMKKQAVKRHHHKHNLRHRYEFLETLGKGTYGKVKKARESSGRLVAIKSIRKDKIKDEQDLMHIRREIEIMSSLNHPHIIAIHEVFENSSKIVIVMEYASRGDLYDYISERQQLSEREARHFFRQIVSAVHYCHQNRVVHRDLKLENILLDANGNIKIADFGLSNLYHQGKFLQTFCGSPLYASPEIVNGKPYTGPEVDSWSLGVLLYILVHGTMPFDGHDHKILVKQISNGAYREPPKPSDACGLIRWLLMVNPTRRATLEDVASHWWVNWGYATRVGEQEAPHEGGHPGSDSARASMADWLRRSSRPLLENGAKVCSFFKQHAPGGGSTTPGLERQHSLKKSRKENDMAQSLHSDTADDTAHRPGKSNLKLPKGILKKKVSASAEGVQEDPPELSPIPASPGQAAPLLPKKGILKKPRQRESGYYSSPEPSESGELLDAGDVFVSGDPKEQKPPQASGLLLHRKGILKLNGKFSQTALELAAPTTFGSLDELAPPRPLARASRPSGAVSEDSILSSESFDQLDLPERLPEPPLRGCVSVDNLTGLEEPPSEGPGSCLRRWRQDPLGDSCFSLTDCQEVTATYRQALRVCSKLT
In words: In vitro NUAK2 enzymatic assay (Eurofins Discovery, [γ-33P]-ATP filter assay). The class given is biochemical. To be noted: 45 μM ATP, 40 min, room temperature; read-out: IC50, inhibitory effect on NUAK2 enzyme activity. As for the experimental part:
In Vitro Assay to Determine the Inhibitory Effect of Compounds in the Patent on NUAK2 Enzymatic Activity
The in vitro NUAK2 enzymatic assay was carried out at Eurofins Discovery to evaluate the inhibitory effect of the compounds presented in the invention. The assay protocol is as follow: the compound to be tested was mixed with NUAK2(h) enzyme and 300 […] substrate in 8 mM MOPS (pH 7.0) buffer containing 0.2 mM EDTA. A Mg/ATP mixture containing 10 mM magnesium acetate and 45 μM [γ-33P]-ATP was added to start the reaction. After incubation for 40 min at room temperature, the reaction was terminated by adding 0.5% phosphoric acid. Then 10 μL of the reaction mix was spotted onto a P30 filter paper. The filter paper was washed four times with 0.425% phosphoric acid with 4 min for each wash, and one time with methanol. The filter paper was air-dried and counted in a liquid scintillation counter. The values obtained were plotted against the drug concentration and the IC50 was calculated.
Table 1 summarizes the inhibitory effect (IC50) of compounds on the NUAK2 enzyme activity in the present invention. ++++ indicates IC50≤10 nM; +++ indicates 10 nM<IC50≤100 nM; ++ indicates 100 nM<IC50≤1 μM; + indicates IC50>1 μM.

For a further test, the target named is T2, NUAK1(h) enzyme (Homo sapiens, UniProt O60285).
T2 construct: purchased Eurofins Discovery
T2 sequence (O60285 1-661): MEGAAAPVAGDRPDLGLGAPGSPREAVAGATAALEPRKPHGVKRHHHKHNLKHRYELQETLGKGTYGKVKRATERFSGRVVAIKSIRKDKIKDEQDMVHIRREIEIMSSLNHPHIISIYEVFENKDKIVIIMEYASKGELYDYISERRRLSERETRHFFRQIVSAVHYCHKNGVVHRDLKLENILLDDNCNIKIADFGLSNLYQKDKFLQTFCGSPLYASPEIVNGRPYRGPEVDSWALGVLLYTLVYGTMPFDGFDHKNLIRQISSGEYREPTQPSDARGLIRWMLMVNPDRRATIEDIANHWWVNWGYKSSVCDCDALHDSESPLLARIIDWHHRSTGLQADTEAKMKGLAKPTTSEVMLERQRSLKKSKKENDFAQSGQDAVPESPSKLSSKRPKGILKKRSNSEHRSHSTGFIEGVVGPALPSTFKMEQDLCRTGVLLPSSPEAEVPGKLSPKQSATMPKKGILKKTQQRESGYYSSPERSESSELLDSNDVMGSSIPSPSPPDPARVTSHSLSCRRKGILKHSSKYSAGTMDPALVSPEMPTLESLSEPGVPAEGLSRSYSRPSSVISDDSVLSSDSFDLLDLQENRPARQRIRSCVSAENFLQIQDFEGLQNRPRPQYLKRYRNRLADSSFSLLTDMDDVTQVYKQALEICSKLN
Nature of the test: In vitro NUAK1 enzymatic assay (Eurofins Discovery, [γ-33P]-ATP filter assay). The class given is biochemical. To be noted: 45 μM ATP, 40 min, room temperature; read-out: IC50, inhibitory effect on NUAK1 enzyme activity. Here is the method:
In Vitro Assay to Determine the Inhibitory Effect of Compounds in the Patent on NUAK1 Enzymatic Activity
The in vitro NUAK1 enzymatic assay was carried out at Eurofins Discovery to evaluate the inhibitory effect of the compounds presented in the invention. The assay protocol is as follow: the compound to be tested was mixed with NUAK1(h) enzyme and 300 μM […] substrate in 8 mM MOPS (pH 7.0) buffer containing 0.2 mM EDTA and incubated at room temperature. A Mg/ATP mixture containing 10 mM magnesium acetate and 45 μM [y-33P]-ATP was added to start the reaction. After incubation for 40 min at room temperature, the reaction was terminated by adding 0.5% phosphoric acid. Then, 10 μL of the reaction mix was spotted onto a P30 filter paper followed with four times of wash with 0.425% phosphoric acid solution (4 min each time), and one time wash with methanol. The filter paper was air-dried and counted in a liquid scintillation counter. The values obtained were plotted against the drug concentration and the IC50 was calculated.
Table 1 summarizes the inhibitory effect (IC50) of compounds tested on the NUAK1 enzyme activity in the present invention. ++++ indicates IC50≤10 nM; […]; ++ indicates 100 nM<IC50≤1 μM; + indicates IC50>1 μM.

Consider `CN1CCN(c2ccc(Nc3ncc4cnc(=O)n(C5CCCC5)c4n3)c(Br)c2)CC1` [Example 12, 7-((2-bromo-4-(4-methylpiperazin-1-yl)phenyl)amino)-1-cyclopentylpyrimido[4,5-d]pyrimidin-2(1H)-one], for which the IC50 at NUAK2(h) enzyme and on NUAK1(h) enzyme was 100 to 1000 nM throughout.
Regarding `CN1CCN(c2ccc(Nc3ncc4cnc(=O)n(C5CCCC5)c4n3)c(OC(F)(F)F)c2)CC1` [Example 9, 1-cyclopentyl-7-((4-(4-methylpiperazin-1-yl)-2-(trifluoromethoxy)phenyl)amino)pyrimido[4,5-d]pyrimidin-2(1H)-one], the IC50 on NUAK2(h) enzyme and on NUAK1(h) enzyme was more than 1000 nM each time.
For `COc1cc(N2CCN(C)CC2)ccc1Nc1ncc2cncc(C3=CCCC3)c2n1` [Example 35, 8-(cyclopent-1-en-1-yl)-N-(2-methoxy-4-(4-methylpiperazin-1-yl)phenyl)pyrido[4,3-d]pyrimidin-2-amine], the half-maximal inhibitory concentration (IC50) on NUAK2(h) enzyme and at NUAK1(h) enzyme was 10 to 100 nM each time.
As for `COc1cc(N2CCN(C)CC2)ccc1Nc1ncc2c(n1)N(C1CC1)C(=O)NC2` [Example 3], the IC50 on NUAK2(h) enzyme is more than 1000 nM; at NUAK1(h) enzyme, 100 to 1000 nM.
The like results for `CC(C)Oc1cc(N2CCN(C)CC2)ccc1Nc1ncc2cnc(=O)n(C3CCCC3)c2n1` [Example 8, 1-cyclopentyl-7-((2-isopropoxy-4-(4-methylpiperazin-1-yl)phenyl)amino)pyrimido[4,5-d]pyrimidin-2(1H)-one] were, in that order, more than 1000 nM and more than 1000 nM.
The corresponding values for `COc1cc(N2CCN(C)CC2)ccc1Nc1nc(C)c2cnc(=O)n(C3CCCC3)c2n1` [Example 13, 1-cyclopentyl-7-((2-methoxy-4-(4-methylpiperazin-1-yl)phenyl)amino)-5-methylpyrimido[4,5-d]pyrimidin-2(1H)-one] are more than 1000 nM and more than 1000 nM.
The corresponding values for `COc1cc(N2CCN(C)CC2)ccc1Nc1ncc2cnc(=O)n(C3CCOCC3)c2n1` [Example 16, 7-((2-methoxy-4-(4-methylpiperazin-1-yl)phenyl)amino)-1-(tetrahydro-2H-pyran-4-yl)pyrimido[4,5-d]pyrimidin-2(1H)-one] are 100 to 1000 nM and more than 1000 nM.
In the case of `COc1cc(N2CCN(C)CC2)ccc1Nc1ncc2c(n1)N(C1CCCC1)C(=O)N(C)C2` [Example 4, 1-cyclopentyl-7-((2-methoxy-4-(4-methylpiperazin-1-yl)phenyl)amino)-3-methyl-3,4-dihydropyrimido[4,5-d]pyrimidin-2(1H)-one], the IC50 on NUAK2(h) enzyme and on NUAK1(h) enzyme was 100 to 1000 nM each time.
In the case of `COc1cc(N2CCN(C)CC2)ccc1Nc1ncc2c(C)c(C(C)=O)c(=O)n(C3CCCC3)c2n1` [Example 36, 6-acetyl-8-cyclopentyl-2-((2-methoxy-4-(4-methylpiperazin-1-yl)phenyl)amino)-5-methylpyrido[2,3-d]pyrimidin-7(8H)-one], the half-maximal inhibitory concentration (IC50) was 100 to 1000 nM at NUAK2(h) enzyme and more than 1000 nM on NUAK1(h) enzyme.
The corresponding values for `COc1cc(N2CCN(C)CC2)ccc1Nc1ncc2cnc(=O)n(C3CCC3)c2n1` [Example 14, 1-cyclobutyl-7-((2-methoxy-4-(4-methylpiperazin-1-yl)phenyl)amino)pyrimido[4,5-d]pyrimidin-2(1H)-one] are 100 to 1000 nM and 100 to 1000 nM.
The like results for `COc1cc(N2CCN(C)CC2)ccc1Nc1ncc2c(n1)N(C1CCCC1)C(=O)CO2` [Example 31, 8-cyclopentyl-2-((2-methoxy-4-(4-methylpiperazin-1-yl)phenyl)amino)-6H-pyrimido[5,4-b][1,4]oxazin-7(8H)-one] were, in that order, 100 to 1000 nM and 100 to 1000 nM.
The like results for `COc1cc(N2CCNCC2)ccc1Nc1ncc2c(C)c(C(C)=O)c(=O)n(C3CCCC3)c2n1` [Example 37, 6-acetyl-8-cyclopentyl-2-((2-methoxy-4-(piperazin-1-yl)phenyl)amino)-5-methylpyrido[2,3-d]pyrimidin-7(8H)-one] were, in that order, 100 to 1000 nM and more than 1000 nM.
As for `CCOc1cc(N2CCN(C)CC2)ccc1Nc1ncc2cnc(=O)n(C3CCCC3)c2n1` [Example 7, 1-cyclopentyl-7-((2-ethoxy-4-(4-methylpiperazin-1-yl)phenyl)amino)pyrimido[4,5-d]pyrimidin-2(1H)-one], the results for the IC50 at NUAK2(h) enzyme and on NUAK1(h) enzyme were 100 to 1000 nM and more than 1000 nM, respectively.
The like results for `COc1cc(N2CCN(C)CC2)ccc1Nc1ncc2c(n1)N(C1CC1)C(=O)CC2` [Example 30] were, in that order, more than 1000 nM and 100 to 1000 nM.
Regarding `COc1cc(N2CCN(C)CC2)ccc1Nc1ncc2c(n1)N(C1CCOCC1)C(=O)NC2` [Example 33, 7-((2-methoxy-4-(4-methylpiperazin-1-yl)phenyl)amino)-1-(tetrahydro-2H-pyran-4-yl)-3,4-dihydropyrimido[4,5-d]pyrimidin-2(1H)-one], the IC50 on NUAK2(h) enzyme and at NUAK1(h) enzyme was 100 to 1000 nM throughout.
As to `CCC(=O)Nc1cccc(Oc2nc(Nc3ccc(N4CCN(C)CC4)cc3OC)ncc2I)c1` [HTH-02-006, reference compound], the IC50 on NUAK2(h) enzyme fell in the range of 100 to 1000 nM; on NUAK1(h) enzyme, 10 to 100 nM.
The corresponding values for `COc1cc(N2CCN(C)CC2)ccc1Nc1ncc2cncc(C3CCCC3)c2n1` [Example 34, 8-cyclopentyl-N-(2-methoxy-4-(4-methylpiperazin-1-yl)phenyl)pyrido[4,3-d]pyrimidin-2-amine] are 10 to 100 nM and 10 to 100 nM.
The corresponding values for `CN1CCN(c2ccc(Nc3ncc4cnc(=O)n(C5CCCC5)c4n3)c(Cl)c2)CC1` [Example 11, 7-((2-chloro-4-(4-methylpiperazin-1-yl)phenyl)amino)-1-cyclopentylpyrimido[4,5-d]pyrimidin-2(1H)-one] are 100 to 1000 nM and 100 to 1000 nM.
The corresponding values for `COc1cc(N2CCN(C)CC2)ccc1Nc1cc2c(cn1)cc(C#N)c(=O)n2C1CCCC1` [Example 25, 1-cyclopentyl-7-((2-methoxy-4-(4-methylpiperazin-1-yl)phenyl)amino)-2-oxo-1,2-dihydro-1,6-naphthyridine-3-carbonitrile] are 100 to 1000 nM and more than 1000 nM.
With `COc1cc(N2CCN(C)CC2)ccc1Nc1ncc2cnc(=O)n(C3CC3)c2n1` [Example 15, 1-cyclopropyl-7-((2-methoxy-4-(4-methylpiperazin-1-yl)phenyl)amino)pyrimido[4,5-d]pyrimidin-2(1H)-one], the IC50 was more than 1000 nM at NUAK2(h) enzyme and 100 to 1000 nM on NUAK1(h) enzyme.
